The results in this text go back to patent US20200277268A1, “PENTAFLUOROPHENYL SULFONAMIDE COMPOUNDS, COMPOSITIONS AND USES THEREOF” (DALRIADA THERAPEUTICS INC., priority 2017, published 2020).

The target of assay [1] is T1, UBA5 (Homo sapiens, UniProt Q9GZZ9).
T1 construct: Constructs of full length human UBA5 (1-404) were cloned into a pET28b(+) vector; His-SUMO (N, cleaved yes); made in house; host or cells: E. coli BL21 (DE3) RILP
Kind of assay: Thermal shift assay of UBA5. Type of assay: binding. The following applies: 50 μM I-1, 0.5 μM UBA5; without compound 46.43° C. On the procedure:
SYPRO Orange protein gel stain (Sigma-Aldrich) was used to conduct thermal shift assays. This was done on a Bio-Rad C1000 Touch ThermoCycler with a CFX96 Real-Time optical unit. Final UBA5 protein concentrations of 0.5 μM were used in 50 mM HEPES, pH 7.4. UBA5 was pre-incubated with test compound I-1 for 4 hours at 30° C. Next, SYPRO orange was added to the samples for a final 5× (10 μM) concentration from the original 5000× stock. DMSO content was 5% (v/v). Heating was done in 0.5° C. increases with 30 seconds in between, from 10 to 75° C. Fluorescence intensity was measured at […] followed by excitation at […]. This emission intensity was graphed against temperature and then recorded as a first derivative curve. The temperature of the resultant curve minima provided the melting temperature (Tm) of the protein. Experiments were run in triplicates.

Assay [2] has as its system healthy human lung cells (MRC9). As to the kind of experiment: CellTiter-Blue cell viability, MRC9. Type of assay: cell-based. The following applies: non-cancerous, 72 hours. The method, boiled down: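 Cells were seeded at 1×10^4/well, grown 24 h in FBS-supplemented medium, then exposed to compound (0.097656–50 μM) for 72 h at 37° C, 5% CO2. Viability was read by CellTiter-Blue fluorescence (560/590 nm) after 1–4 h reagent incubation, with IC50 derived by non-linear regression.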

The next assay deals with AR230R. Kind of assay: Cell viability, CML AR230R. In kind it is cell-based. The following applies: Table 4. On the procedure: (§1) The anti-cancer efficacy of exemplary compounds of the application were assessed in vitro against different cancer cell lines. Cell viability was examined following treatment at various concentrations of inhibitor (0.097656-50 μM) using a CellTiter-Blue® cell viability assay. 1×10^4 cells/well were plated in 96-well assay plates in culture medium. All cells were grown in DMEM, IMDM and RPMI-1640 supplemented with 10% fetal bovine serum (FBS). In some instances, FBS was removed for periods ranging from 16-24 hours, and re-introduced with test compound addition. After 24 hrs, test compounds and vehicle controls were added to appropriate wells such that the final volume was 100 μl in each well. The cells were cultured for the desired test exposure period (72 hours) at 37° C. and 5% CO2. The assay plates were removed from […] incubator and 20 μl/well of CellTiter-Blue® Reagent was added. The plates were incubated using standard cell culture conditions for 1-4 hours. Afterwards, the plates were shaken for 10 seconds and florescence was recorded at 560/590 nm using a Cytation 3 spectrophotometer. IC50 values were determined using non-linear regression analysis with GraphPad Prism 6.0 (GraphPad Software Inc.). […]

A further assay has as its target hERG channel (Homo sapiens, UniProt Q12809). Kind of assay: cell-based.
A further assay relates to kinases. Kind of assay: KINOMEscan kinase screen (DiscoverX). Type of assay: binding. The following applies: 10 μM. The protocol: For most assays, kinase-tagged T7 phage strains were grown in parallel in 24-well blocks in an E. coli host derived from the BL21 strain. E. coli were grown to log-phase and infected with T7 phage from a frozen stock (multiplicity of infection=0.4) and incubated with shaking at 32° C. until lysis (90-150 minutes). The lysates were centrifuged (6,000×g) and filtered (0.2 μm) to remove cell debris. The remaining kinases were produced in HEK-293 cells and subsequently tagged with DNA for qPCR detection. […] The liganded beads were blocked with excess biotin and washed with blocking buffer (SeaBlock (Pierce), 1% BSA, 0.05% Tween 20, 1 mM DTT) to remove unbound ligand and to reduce non-specific phage binding. […] I-1 test compound was prepared as 40× stocks in 100% DMSO and directly diluted into the assay. All reactions were performed in polypropylene 384-well plates in a final volume of 0.02 mL. […] The kinase concentration in the eluates was measured by qPCR. […]
I-1 test compound was tested at 10 μM, and results for primary screen binding interactions are reported as […] where lower numbers indicate stronger hits in the matrix. Ctrl is calculated with the following formula:
test compound=I-1 negative control=DMSO (100% Ctrl) positive control=control compound (0% Ctrl)

A further assay concerns D458. As to the kind of experiment: Cell viability, medulloblastoma D458. Type of assay: cell-based. The following applies: medulloblastoma cell line. On the procedure: as §1
The test system of a further assay is D425. As to the kind of experiment: Cell viability, medulloblastoma D425. Type of assay: cell-based. The settings on record: medulloblastoma cell line. On the procedure:
as §1

In another assay the test system is U87MG. As to the kind of experiment: Cell viability, glioblastoma U87MG. In kind it is cell-based. The settings on record: Homo sapiens, U-87 MG; glioblastoma cell line. The protocol:
(§2) The anti-cancer efficacy of exemplary compounds of the application were assessed in vitro against different cancer cell lines. […] 1×10^4 cells/well were plated in 96-well assay plates in culture medium. […] In some instances, FBS was removed for periods ranging from 16-24 hours, and re-introduced with test compound addition. After 24 hrs, test compounds and vehicle controls were added to appropriate wells such that the final volume was 100 μl in each well. The cells were cultured for the desired test exposure period (72 hours) at 37° C. and 5% CO2. The assay plates were removed from […] incubator and 20 μl/well of CellTiter-Blue® Reagent was added. The plates were incubated using standard cell culture conditions for 1-4 hours. Afterwards, the plates were shaken for 10 seconds and florescence was recorded at 560/590 nm using a Cytation 3 spectrophotometer. IC50 values were determined using non-linear regression analysis with GraphPad Prism 6.0 (GraphPad Software Inc.).

For assay [3], the system named is primary human fibroblast cells (PHF). Kind of assay: CellTiter-Blue cell viability, PHF. In kind it is cell-based. The following applies: non-cancerous, 72 hours. On the procedure:
The anti-cancer efficacy of exemplary compounds of the application were assessed in vitro against different cancer cell lines. Cell viability was examined following treatment at various concentrations of inhibitor (0.097656-50 μM) using a CellTiter-Blue® cell viability assay. 1×10^4 cells/well were plated in 96-well assay plates in culture medium. All cells were grown in DMEM, IMDM and RPMI-1640 supplemented with 10% fetal bovine serum (FBS). In some instances, FBS was removed for periods ranging from 16-24 hours, and re-introduced with test compound addition. After 24 hrs, test compounds and vehicle controls were added to appropriate wells such that the final volume was 100 μl in each well. The cells were cultured for the desired test exposure period (72 hours) at 37° C. and 5% CO2. The assay plates were removed from 3° C. incubator and 20 μl/well of CellTiter-Blue® Reagent was added. The plates were incubated using standard cell culture conditions for 1-4 hours. Afterwards, the plates were shaken for 10 seconds and florescence was recorded at 560/590 nm using a Cytation 3 spectrophotometer. IC50 values were determined using non-linear regression analysis with GraphPad Prism 6.0 (GraphPad Software Inc.).
For orientation: Resazurin is reduced to fluorescent resorufin, in cell work by metabolically active cells.

The test system of another assay is A-172. Kind of assay: Cell viability, glioblastoma A-172. In kind it is cell-based. The following applies: Homo sapiens, glioblastoma cell line. On the procedure:
as §2

In assay [4] the target is T1, UBA5. As to the kind of experiment: 19F NMR study of covalent modification of UBA5. Type of assay: binding. The following applies: 100 μM compound, 100 μM UBA5, 2 hours at 37° C. The protocol: Spectra were normalized and referenced according to the fluorine peak of 5-fluoro-Trp.
To assess potential reactivity of I-1 against Cys containing proteins, a series of ^19F NMR studies were conducted with BSA, lysozyme, STAT3, and STATS. […] All samples were prepared in 100 mM HEPES pH 7.4, and 100 μM 5-fluoro-Trp, with a final concentration of 10% D20 and 10% DMSO. The samples were incubated for 2 hours at 37° C. prior to data collection. All spectra were normalized and referenced according to the fluorine peak of 5-fluoro-Trp.
To evaluate covalent modification of UBA5 by I-1, ^19F NMR studies were conducted in accordance with the procedure described in Example 80.

A further assay deals with tubulin. Kind of assay: Tubulin polymerization assay. Type of assay: biochemical. The settings on record: 10 μM compound, optical density 340 nm.

As a reminder, the IC50 is the concentration that inhibits the measured activity by half.

SMILES strings stand for the structures. “Also recorded” adds a separate entry of the source.

T1 sequence (Q9GZZ9 whole entry): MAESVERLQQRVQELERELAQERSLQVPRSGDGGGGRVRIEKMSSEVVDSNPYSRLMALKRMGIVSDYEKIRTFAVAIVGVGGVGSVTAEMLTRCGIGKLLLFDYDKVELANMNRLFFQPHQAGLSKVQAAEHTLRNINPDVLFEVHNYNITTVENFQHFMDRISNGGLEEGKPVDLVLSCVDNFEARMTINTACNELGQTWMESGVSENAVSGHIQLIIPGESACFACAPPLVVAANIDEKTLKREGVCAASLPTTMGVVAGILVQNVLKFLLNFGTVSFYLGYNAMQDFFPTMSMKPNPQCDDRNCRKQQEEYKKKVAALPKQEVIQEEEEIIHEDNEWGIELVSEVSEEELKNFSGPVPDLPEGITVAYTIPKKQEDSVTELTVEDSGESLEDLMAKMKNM
hERG channel, sequence (Q12809 whole entry): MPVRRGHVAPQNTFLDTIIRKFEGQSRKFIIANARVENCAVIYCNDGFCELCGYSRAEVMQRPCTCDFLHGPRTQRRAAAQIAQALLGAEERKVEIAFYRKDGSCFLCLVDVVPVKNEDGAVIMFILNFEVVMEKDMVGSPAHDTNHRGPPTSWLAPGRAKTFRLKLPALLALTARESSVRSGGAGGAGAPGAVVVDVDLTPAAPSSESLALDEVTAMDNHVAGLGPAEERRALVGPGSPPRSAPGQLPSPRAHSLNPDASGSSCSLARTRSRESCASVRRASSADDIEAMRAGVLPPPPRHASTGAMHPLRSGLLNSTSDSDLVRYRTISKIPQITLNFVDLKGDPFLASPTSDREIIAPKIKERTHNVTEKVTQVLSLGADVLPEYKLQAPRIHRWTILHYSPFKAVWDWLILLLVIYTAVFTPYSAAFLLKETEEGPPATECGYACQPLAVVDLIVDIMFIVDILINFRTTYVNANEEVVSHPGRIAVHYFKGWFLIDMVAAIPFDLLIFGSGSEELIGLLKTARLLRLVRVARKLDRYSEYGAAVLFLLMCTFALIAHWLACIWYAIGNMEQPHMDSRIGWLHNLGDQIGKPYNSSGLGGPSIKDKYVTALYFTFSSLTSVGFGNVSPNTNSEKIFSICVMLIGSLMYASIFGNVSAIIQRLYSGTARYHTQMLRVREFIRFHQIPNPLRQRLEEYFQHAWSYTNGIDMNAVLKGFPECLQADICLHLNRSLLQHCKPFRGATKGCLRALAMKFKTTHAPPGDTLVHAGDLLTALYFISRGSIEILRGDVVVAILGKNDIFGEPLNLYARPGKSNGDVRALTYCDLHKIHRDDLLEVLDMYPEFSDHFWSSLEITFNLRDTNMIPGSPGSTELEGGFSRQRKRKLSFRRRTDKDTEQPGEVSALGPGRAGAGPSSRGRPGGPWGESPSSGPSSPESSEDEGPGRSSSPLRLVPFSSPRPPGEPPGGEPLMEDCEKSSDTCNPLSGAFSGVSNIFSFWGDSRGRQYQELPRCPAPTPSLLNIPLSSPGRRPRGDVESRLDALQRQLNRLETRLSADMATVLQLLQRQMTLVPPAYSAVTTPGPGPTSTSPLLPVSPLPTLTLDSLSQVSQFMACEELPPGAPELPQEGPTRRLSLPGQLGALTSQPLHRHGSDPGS

Consider `O=S(=O)(c1c(F)c(F)c(F)c(F)c1F)N(Cc1ccc(F)cc1)C1CC1` [Compound I-1, N-cyclopropyl-2,3,4,5,6-pentafluoro-N-(4-fluorobenzyl)benzenesulfonamide], for which the “melting temperature (Tm) of UBA5 with compound” value at UBA5 [1] was 44.33 °C. Moreover, the IC50 amounted to 25 µM in assay [2]; 1.5 µM in the assay on AR230R; 17.3 µM at hERG channel; 2.2 µM in the assay with D458; 0.8 µM in the assay on D425; 2.87 µM in the assay on U87MG. In addition, the IC50 in assay [3] stood at 3.4 µM; in the assay with A-172, 7.16 µM. Also, the “competitive binding / inhibition of kinase targets” value in the assay on kinases is “negligible competitive binding; also recorded: does not inhibit”. In addition, the “covalent modification of UBA5 (free fluoride detection)” value on UBA5 [4] is given as “Fluoride was released; also recorded: covalently modifies UBA5”. Besides, the “inhibition of tubulin polymerization” value with tubulin is on record as “Negligible inhibition; also recorded: no significant inhibitory action”.
